Source: patent US7470707B2, “Crystalline monohydrate clopidogrel naphthalenedisulfonate and process of preparation” (Hanmi Pharm. Co., Ltd, priority 2004, dated 2008)
Where a name gives a salt, the structure may show the parent alone. Read-outs that look alike come from different tables or passages of the source.

Experiments:
[1] = test system: platelet aggregation induced by adenosine-diphosphate (ADP); conditions: ADP (5 μM), PRP of female Sprague-Dawley rats after oral dose corresponding to clopidogrel 15.3 mg/kg
Method: (§1) The pharmacological activities for preventing platelet aggregation of the clopidogrel hydrogen sulfate obtained in Comparative Example 1, and the inventive clopidogrel 2-naphthalenesulfonate and clopidogrel 1,5-naphthalenedisulfonate monohydrate obtained in Examples 1 and 2, respectively, were tested using rat blood in accordance with the standard method (see Born G.V.R & Cross, J. Physiol. 168: 178-195, 1963; 0. Takahashi, Food & Chemical Toxicology 38: 203-218, 2000). The platelet aggregation inhibition test was performed ex vivo, and the inhibitory activities of the acid addition salts against platelets aggregation induced by adenosine-diphosphate (ADP), collagen and thrombin, respectively, were measured.
(§2) Twenty 11 to 12-weeks old female Sprague-Dawley rats (average weight: 270±25 g) were divided into four groups each consisting of five rats, and each group of rats was orally administered with 20.0 mg/kg of clopidogrel hydrogen sulfate (15.3 mg/kg as clopidogrel), 25.2 mg/kg of clopidogrel 2-naphthalenesulfonate, and 22.6 mg/kg of clopidogrel 1,5-naphthalenedisulfonate monohydrate dissolved in 1% DMSO based on a volume of 10 ml/kg body weight. For the control group of rats, only 1% DMSO solution was administered.
(§3) Blood samples were taken using a syringe pre-charged with 3.8% citric acid solution from the abdominal artery of the animals under anesthesia, and the blood samples were centrifuged at 4° C. and 1,000 rpm for 10 minutes to separate platelet-rich plasma (PRP). The separated plasma was further centrifuged four times at 4° C. and 1,000 rpm to obtain PRP for test. A portion of PRP was further centrifuged at 4° C. and 3,000 rpm for 10 minutes to prepare precipitated platelet, and the precipitated platelet was washed with a buffer (138 mM NaCl, 2.7 mM KCl, 12 mM NaHCO3, 0.36 mM NaH2PO4, 5.5 mM glucose, 1 mM EDTA: pH 6.5). Then, the platelet was suspended in a buffer (138 mM NaCl, 2.7 mM KCl, 12 mM NaHCO3, 0.36 mM NaH2PO4, 0.49 mM MgCl2, 0.25% gelatin, 5.5 mM glucose: pH 7.4) such that the optical density (OD) value at 260 nm corresponded to a number of platelet which is about 1×10^8.
(§4) To induce platelet aggregation, ADP standard solution was added to the above PRP to determine the concentration until the final concentration of the ADP became 5 μM. Further, a collagen standard solution (final concentration 5 μg/ml) and thrombin standard solution (final concentration 0.1 U/ml) was added to the above washing platelet solution to induce platelet aggregation. Each of the samples was stirred at 37° C. and 900 rpm to measure the amount of platelet aggregation using a aggregometer (Chrono-log Platelet Aggregometer). The degrees of platelet aggregation and inhibition were calculated using formulae 1 and 2, and the results are shown in Table 8. Degree of aggregation (%)=[(measured aggregation height)/(aggregation height when 100% was aggregated)]×100 <Formula 1> Degree of inhibition (%)=[(aggregation height of control group)−(aggregation height of drug administration group)]/(aggregation height of control group)×100 <Formula 2>

[2] = test system: platelet aggregation induced by collagen; conditions: Collagen (5 μg/ml), washed platelets of female Sprague-Dawley rats after oral dose corresponding to clopidogrel 15.3 mg/kg
Method: as §1, §2, §3, §4

[3] = test system: platelet aggregation induced by thrombin; conditions: Thrombin (0.1 U/ml), washed platelets of female Sprague-Dawley rats after oral dose corresponding to clopidogrel 15.3 mg/kg
Method: as §1, §2, §3, §4

Row | SMILES | Aggregation ratio [1] [%] | Inhibition ratio [1] [%] | Aggregation ratio [2] [%] | Inhibition ratio [2] [%] | Aggregation ratio [3] [%] | Inhibition ratio [3] [%] | Aggregation ratio ([1]; Monohydrate) [%] | Inhibition ratio ([1]; Monohydrate) [%] | Aggregation ratio ([2]; Monohydrate) [%] | Inhibition ratio ([2]; Monohydrate) [%] | Aggregation ratio ([3]; Monohydrate) [%] | Inhibition ratio ([3]; Monohydrate) [%]
1 | COC(=O)[C@H](c1ccccc1Cl)N1CCc2sccc2C1 [2-Naphthalenesulfonate, Clopidogrel 2-naphthalenesulfonate] | 2.94 ± 0.21 | 91.8 | 1.88 ± 0.25 | 97.9 | 15.00 ± 1.71 | 81.9 |  |  |  |  |  | 
2 | COC(=O)[C@H](c1ccccc1Cl)N1CCc2sccc2C1 [Hydrogen sulfate, Clopidogrel Hydrogen Sulfate, reference compound] | 5.00 ± 0.60 | 86.1 | 12.19 ± 1.70 | 84.8 | 27.22 ± 1.52 | 67.1 |  |  |  |  |  | 
3 | COC(=O)[C@H](c1ccccc1Cl)N1CCc2sccc2C1 [1,5-Naphthalenedisulfonate monohydrate, Clopidogrel 1,5-naphthalenedisulfonate Monohydrate] |  |  |  |  |  |  | 4.12 ± 0.14 | 88.5 | 3.75 ± 0.40 | 95.3 | 23.61 ± 1.43 | 71.5
